Experimental data reported in patent US20230192661A1, “1, 4, 5, 6-TETRAHYDROPYRIMIDINE-2-AMINE DERIVATIVE” (UBE Corporation, priority 2020, published 2023).

Key:
[1] = target: T1, αvβ1 (UniProt G3HZ55+P06756); assay: αvβ1 cell adhesion inhibition test (αv-transfected CHO cells on human fibronectin); type: cell-based; conditions: human fibronectin coating, 1 mM MnCl2, 1 hour, read-out: IC50 (rate of inhibition of cell adhesion, αvβ1)
T1 construct: expressed in transfected cells; host or cells: CHO cells deficient in α5 gene, transfected with αv gene
Protocol: Test Example 1 was performed by partially modifying the method of Reed et al. (Sci Transl Med., 7 (288), 288ra79, 2015).
Human fibronectin (manufactured by Sigma-Aldrich Co. LLC, F0895) was prepared at 1.25 μg/mL with phosphate buffered saline (PBS), dispensed at 100 μL/well to a 96-well plate, and left standing overnight. The plate was washed with Hanks' balanced salt solution (HBSS), then subjected to blocking treatment with Dulbecco's modified Eagle medium (DMEM) containing 1% bovine serum-derived albumin (BSA) (FUJIFILM Wako Pure Chemical Corp., for cell culture, 017-22231), and used as a coated plate in the adhesion test.
αv-transfected cells (CHO cells deficient in α5 gene and transfected with αv gene) cultured in Ham's F-12 medium (FUJIFILM Wako Pure Chemical Corp., 087-08335) containing 10% fetal bovine serum (FBS), 1% penicillin/streptomycin/amphotericin B (manufactured by Thermo Fisher Scientific, Inc., 15240), 1 mM GlutaMAX Supplement (manufactured by Thermo Fisher Scientific, Inc., 35050), and 400 μg/mL hygromycin B (FUJIFILM Wako Pure Chemical Corp., 080-07683) were recovered and suspended in DMEM containing 1 mM MnCl2 (manufactured by Sigma-Aldrich Co. LLC, M1787) to prepare a cell suspension. A test compound dissolved in DMSO was added thereto.
The cell suspension of 1×10^6 cells/mL containing the test compound was added at 100 μL/well to the coated plate and left standing for 1 hour in a 5% CO2 incubator (37° C.). One hour later, the supernatant was removed, and the plate was washed with HBSS. The cells that adhered to each well in the plate were stained with crystal violet, and the cells were lysed, followed by absorbance measurement. Inhibition without substrate coating was defined as 100% inhibition, and inhibition when DMSO was added instead of the test compound was defined as 0% inhibition. The rate of inhibition of cell adhesion by the test compound was calculated according to the following expression.
Rate of inhibition of cell adhesion (%)=[1−{(Absorbance in the case of adding the test compound)−(Absorbance without substrate coating)}/{(Absorbance in the case of adding DMSO)−(Absorbance without substrate coating)}]×100
An IC50 value was calculated from the rate of inhibition of cell adhesion by the test compound. A: IC50<3 nM, B: 3 nM≤IC50<10 nM, C: 10 nM≤IC50<30 nM, D: 30 nM≤IC50<100 nM, or E: IC50≥100 nM.

[2] = system: Human hepatic stellate cells; assay: Active human hepatic stellate cell dedifferentiation test (decrease in ACTA2 mRNA expression); type: cell-based; conditions: 3 days differentiation then 2 days with compound, read-out: IC50 (rate of decrease in ACTA2 mRNA expression)
Protocol: Human hepatic stellate cells (manufactured by ScienCell Research Laboratories, Inc., 5300) were suspended in DMEM containing 10% FBS and […] penicillin/streptomycin/amphotericin B to prepare a cell suspension of 0.5×10^5 cells/mL, which was regarded as cells at the start of differentiation. The cells at the start of differentiation were dispensed at 1 mL/well to a 12-well plate and cultured, for differentiation, for 3 days in a 5% CO2 incubator (37° C.).
The culture solution in each well was removed, and DMEM containing 10% FBS and 1% penicillin/streptomycin/amphotericin B supplemented with a test compound dissolved in DMSO (final DMSO concentration: 0.1%) was added at 1 mL/well. The resultant was further cultured for 2 days in a 5% CO2 incubator (37° C.). In Test Example 4, the same reagents as in Test Example 1 were used unless otherwise specified.
RNA in the cultured cells was extracted using NucleoSpin® RNA (manufactured by Takara Bio Inc., U0955C), and cDNA was further synthesized from the extracted RNA using Prime Script™ RT reagent Kit with gDNA Eraser (manufactured by Takara Bio Inc., RR047A). Real time PCR was performed using the synthesized cDNA, various primers and TB Green® Premix Ex Taq™ II (manufactured by Takara Bio Inc., RR820A) and using PCR Thermal Cycler Dice Real Time (manufactured by Takara Bio Inc., System Code TP910, Model Code TP900). The primers used were actin alpha 2, smooth muscle (ACTA2) primer (manufactured by Takara Bio Inc., HA136273) and glyceraldehyde-3-phosphate dehydrogenase (GAPDH) primer (manufactured by Takara Bio Inc., HA067812).
The amplification curve of PCR was analyzed by the comparative Ct method. The expression level of ACTA2 mRNA was corrected with the expression level of GAPDH mRNA. An ACTA2 mRNA expression level when DMSO was added instead of the test compound was defined as 100%, and an ACTA2 mRNA expression level in the cells at the start of differentiation was defined as 0%. The rate of decrease in ACTA2 mRNA expression by the test compound was calculated according to the following expression.
Rate of decrease in ACTA2 mRNA expression (%)=[1−{(ACTA2 mRNA expression level in the case of adding the test compound)−(ACTA2 mRNA expression level in the cells at the start of differentiation)}/{(ACTA2 mRNA expression level in the case of adding DMSO)−(ACTA2 mRNA expression level in the cells at the start of differentiation)}]×100
An IC50 value was calculated from the rate of decrease in ACTA2 mRNA expression by the test compound. A: IC50<10 nM, B: 10 nM≤IC50<50 nM, C: 50 nM≤IC50<100 nM, or D: IC50≥100 nM.

T1 sequence (P06756 31-889 limits assumed): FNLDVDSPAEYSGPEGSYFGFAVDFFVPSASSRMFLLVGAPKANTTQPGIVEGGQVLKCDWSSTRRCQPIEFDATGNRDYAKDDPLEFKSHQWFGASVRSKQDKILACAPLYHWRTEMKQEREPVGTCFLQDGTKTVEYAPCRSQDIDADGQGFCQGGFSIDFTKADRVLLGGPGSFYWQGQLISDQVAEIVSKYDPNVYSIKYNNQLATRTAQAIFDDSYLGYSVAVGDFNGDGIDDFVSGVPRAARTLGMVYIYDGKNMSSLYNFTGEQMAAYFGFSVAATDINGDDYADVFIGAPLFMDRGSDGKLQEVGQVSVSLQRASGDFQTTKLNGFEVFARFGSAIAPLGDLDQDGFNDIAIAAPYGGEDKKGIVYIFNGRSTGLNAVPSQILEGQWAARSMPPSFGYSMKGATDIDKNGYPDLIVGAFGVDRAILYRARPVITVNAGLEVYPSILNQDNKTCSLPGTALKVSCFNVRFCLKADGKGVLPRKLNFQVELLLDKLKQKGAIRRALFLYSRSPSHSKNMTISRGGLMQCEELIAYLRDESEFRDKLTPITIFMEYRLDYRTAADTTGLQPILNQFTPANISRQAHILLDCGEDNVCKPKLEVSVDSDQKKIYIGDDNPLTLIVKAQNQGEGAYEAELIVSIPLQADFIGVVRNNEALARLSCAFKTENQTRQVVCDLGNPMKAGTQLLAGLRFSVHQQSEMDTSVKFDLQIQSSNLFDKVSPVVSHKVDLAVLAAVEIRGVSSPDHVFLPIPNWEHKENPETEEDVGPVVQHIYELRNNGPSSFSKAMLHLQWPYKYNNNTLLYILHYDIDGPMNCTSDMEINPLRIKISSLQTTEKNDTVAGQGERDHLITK
T1 sequence (P06756 891-1048 limits assumed): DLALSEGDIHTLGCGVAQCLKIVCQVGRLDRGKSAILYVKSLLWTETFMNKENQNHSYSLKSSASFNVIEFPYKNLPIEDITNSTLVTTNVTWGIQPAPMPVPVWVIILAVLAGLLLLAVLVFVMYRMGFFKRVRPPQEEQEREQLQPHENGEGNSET
T1 sequence (G3HZ55 21-798): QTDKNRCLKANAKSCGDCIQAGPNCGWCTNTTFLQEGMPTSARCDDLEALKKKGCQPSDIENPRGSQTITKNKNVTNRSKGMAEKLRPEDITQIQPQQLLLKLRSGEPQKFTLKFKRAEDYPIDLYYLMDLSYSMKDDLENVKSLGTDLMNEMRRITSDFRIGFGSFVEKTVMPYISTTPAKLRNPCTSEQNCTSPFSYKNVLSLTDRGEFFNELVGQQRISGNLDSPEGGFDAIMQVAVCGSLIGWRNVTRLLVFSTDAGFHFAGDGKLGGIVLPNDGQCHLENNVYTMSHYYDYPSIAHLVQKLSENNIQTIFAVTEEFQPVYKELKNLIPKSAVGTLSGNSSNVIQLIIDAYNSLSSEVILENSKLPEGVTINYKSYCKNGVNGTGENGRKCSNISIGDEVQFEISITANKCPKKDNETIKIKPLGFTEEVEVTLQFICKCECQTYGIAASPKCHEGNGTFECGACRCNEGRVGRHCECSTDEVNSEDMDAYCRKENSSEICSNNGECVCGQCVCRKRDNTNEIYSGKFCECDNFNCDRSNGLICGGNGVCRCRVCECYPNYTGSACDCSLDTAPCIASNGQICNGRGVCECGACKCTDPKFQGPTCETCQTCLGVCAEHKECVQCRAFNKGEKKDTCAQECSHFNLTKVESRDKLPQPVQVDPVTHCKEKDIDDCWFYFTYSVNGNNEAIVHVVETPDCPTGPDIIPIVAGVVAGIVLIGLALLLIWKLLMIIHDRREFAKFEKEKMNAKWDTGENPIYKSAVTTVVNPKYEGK

Compound | IC50 [1] [nM] | IC50 [2] [nM]
O=C(O)C[C@H](NC(=O)CNC(=O)c1cc(NC2=NCC(F)CN2)c2cn[nH]c2c1)c1cc(F)cc(C(F)(F)F)c1 (stereo partly drawn) [Example 6-(b), (3S)-3-(2-(4-((5-fluoro-1,4,5,6-tetrahydropyrimidin-2-yl)amino)-1H-indazole-6-carboxamido)acetamido)-3-(3-fluoro-5-(trifluoromethyl)phenyl)propanoic acid] | < 3 | 10 to 50
O=C(O)C[C@H](NC(=O)CNC(=O)c1cc(NC2=NCC(F)CN2)c2cn[nH]c2c1)c1cc(C(F)(F)F)cc(C(F)(F)F)c1 (stereo partly drawn) [Example 7-(b), (3S)-3-(3,5-bis(trifluoromethyl)phenyl)-3-(2-(4-((5-fluoro-1,4,5,6-tetrahydropyrimidin-2-yl)amino)-1H-indazole-6-carboxamido)acetamido)propanoic acid] | < 3 | < 10
O=C(O)C[C@H](NC(=O)CNC(=O)c1cc(NC2=NCC(F)CN2)c2cn[nH]c2c1)c1cc(-n2cccn2)cc(C(F)(F)F)c1 (stereo partly drawn) [Example 8-(b), (3S)-3-(3-(1H-pyrazol-1-yl)-5-(trifluoromethyl)phenyl)-3-(2-(4-((5-fluoro-1,4,5,6-tetrahydropyrimidin-2-yl)amino)-1H-indazole-6-carboxamido)acetamido)propanoic acid] | < 3 | 50 to 100
O=C(O)C[C@H](NC(=O)CNC(=O)c1cc(NC2=NCC(F)CN2)c2cn[nH]c2c1)c1cccc(C(F)(F)F)c1F (stereo partly drawn) [Example 9-(b), (3S)-3-(2-(4-((5-fluoro-1,4,5,6-tetrahydropyrimidin-2-yl)amino)-1H-indazole-6-carboxamido)acetamido)-3-(2-fluoro-3-(trifluoromethyl)phenyl)propanoic acid] | 3 to 10 | 10 to 50
O=C(O)C[C@H](NC(=O)CNC(=O)c1cc(NC2=NCC(F)CN2)c2cn[nH]c2c1)c1cccc(C(F)(F)F)c1Cl (stereo partly drawn) [Example 10-(b), (3S)-3-(2-chloro-3-(trifluoromethyl)phenyl)-3-(2-(4-((5-fluoro-1,4,5,6-tetrahydropyrimidin-2-yl)amino)-1H-indazole-6-carboxamido)acetamido)propanoic acid] | ≥ 100 | ≥ 100
O=C(O)C[C@H](NC(=O)CNC(=O)c1cc(NC2=NCC(F)CN2)c2cn[nH]c2c1)c1cc(C(F)(F)F)ccc1F (stereo partly drawn) [Example 11-(b), (3S)-3-(2-(4-((5-fluoro-1,4,5,6-tetrahydropyrimidin-2-yl)amino)-1H-indazole-6-carboxamido)acetamido)-3-(2-fluoro-5-(trifluoromethyl)phenyl)propanoic acid] | 3 to 10 | < 10
O=C(O)C[C@H](NC(=O)CNC(=O)c1cc(NC2=NCC(F)CN2)c2cn[nH]c2c1)c1cc(C(F)(F)F)ccc1Cl (stereo partly drawn) [Example 12-(b), (3S)-3-(2-chloro-5-(trifluoromethyl)phenyl)-3-(2-(4-((5-fluoro-1,4,5,6-tetrahydropyrimidin-2-yl)amino)-1H-indazole-6-carboxamido)acetamido)propanoic acid] | 3 to 10 | 10 to 50
O=C(O)C[C@H](NC(=O)CNC(=O)c1cc(NC2=NCC(F)CN2)c2cn[nH]c2c1)c1ccc(F)c(C(F)(F)F)c1 (stereo partly drawn) [Example 13-(b), (3S)-3-(2-(4-((5-fluoro-1,4,5,6-tetrahydropyrimidin-2-yl)amino)-1H-indazole-6-carboxamido)acetamido)-3-(4-fluoro-3-(trifluoromethyl)phenyl)propanoic acid] | < 3 | 10 to 50
Cc1ccc([C@H](CC(=O)O)NC(=O)CNC(=O)c2cc(NC3=NCC(F)CN3)c3cn[nH]c3c2)cc1C(F)(F)F (stereo partly drawn) [Example 14-(b), (3S)-3-(2-(4-((5-fluoro-1,4,5,6-tetrahydropyrimidin-2-yl)amino)-1H-indazole-6-carboxamido)acetamido)-3-(4-methyl-3-(trifluoromethyl)phenyl)propanoic acid] | < 3 | < 10
O=C(O)C[C@H](NC(=O)CNC(=O)c1cc(NC2=NCC(F)CN2)c2cn[nH]c2c1)c1cc(Cl)c(F)c(C(F)(F)F)c1 (stereo partly drawn) [Example 15-(b), (3S)-3-(3-chloro-4-fluoro-5-(trifluoromethyl)phenyl)-3-(2-(4-((5-fluoro-1,4,5,6-tetrahydropyrimidin-2-yl)amino)-1H-indazole-6-carboxamido)acetamido)propanoic acid] | < 3 | < 10
COc1ccc([C@H](CC(=O)O)NC(=O)CNC(=O)c2cc(NC3=NCC(F)CN3)c3cn[nH]c3c2)cc1Br (stereo partly drawn) [Example 16-(b), (3S)-3-(3-bromo-4-methoxyphenyl)-3-(2-(4-((5-fluoro-1,4,5,6-tetrahydropyrimidin-2-yl)amino)-1H-indazole-6-carboxamido)acetamido)propanoic acid] | < 3 | < 10
O=C(O)C[C@H](NC(=O)CNC(=O)c1cc(NC2=NCC(F)CN2)c2cn[nH]c2c1)c1cc(Cl)cc(Cl)c1 (stereo partly drawn) [Example 17-(b), (3S)-3-(3,5-dichlorophenyl)-3-(2-(4-((5-fluoro-1,4,5,6-tetrahydropyrimidin-2-yl)amino)-1H-indazole-6-carboxamido)acetamido)propanoic acid] | < 3 | 10 to 50
O=C(O)C[C@H](NC(=O)CNC(=O)c1cc(NC2=NCC(F)CN2)c2cn[nH]c2c1)c1cc(Cl)cc(Br)c1 (stereo partly drawn) [Example 18-(b), (3S)-3-(3-bromo-5-chlorophenyl)-3-(2-(4-((5-fluoro-1,4,5,6-tetrahydropyrimidin-2-yl)amino)-1H-indazole-6-carboxamido)acetamido)propanoic acid] | < 3 | < 10
O=C(O)C[C@H](NC(=O)CNC(=O)c1cc(NC2=NCC(F)CN2)c2cn[nH]c2c1)c1cc(Br)cc(Br)c1 (stereo partly drawn) [Example 19-(b), (3S)-3-(3,5-dibromophenyl)-3-(2-(4-((5-fluoro-1,4,5,6-tetrahydropyrimidin-2-yl)amino)-1H-indazole-6-carboxamido)acetamido)propanoic acid] | < 3 | < 10
O=C(O)C[C@H](NC(=O)CNC(=O)c1cc(NC2=NCC(F)CN2)c2cn[nH]c2c1)c1cc(Br)cc(I)c1 (stereo partly drawn) [Example 20-(b), (3S)-3-(3-bromo-5-iodophenyl)-3-(2-(4-((5-fluoro-1,4,5,6-tetrahydropyrimidin-2-yl)amino)-1H-indazole-6-carboxamido)acetamido)propanoic acid] | < 3 | < 10
